Test results: patent US20190276871A1, “Antimicrobial Cartridges and Processes for Antimicrobial Susceptibility Testing” (SeLux Diagnostics, Inc., priority 2017, published 2019)
Values after ≈ are worked out from the molar mass of the structure shown. Like-named read-outs stand apart in the source and are kept apart here.

Assays:
[1] = tested on: patient sample microbes; test: AST on 384-well patient cartridge panel made from Master Plate, antimicrobial panel 1; format: cell-based; details: master cartridge format
Excerpt: (§1) An assay setup comprises preparation of patient (target) cartridge by dispensing antimicrobials were from the master cartridge or intermediate serial dilution cartridges into one or more 384 reservoir patient cartridge, each antimicrobial in about 7 serial dilutions in triplicate, and covering the dynamic range of each antimicrobial that is known to be effective and therefore should be reported. The dilution range included the expected minimum inhibitory concentration (MIC) for each antimicrobial. But most importantly, dilution ranges, that is, antimicrobial concentrations beyond the range known to be effective are included in the patient cartridge as per the present invention.
(§2) The remaining reservoirs of the 384 well patient cartridge are utilized for setting up test controls: a no-antimicrobial control (negative control) was included for each antimicrobial compound; and a positive control was included for each antimicrobial set, where a microorganism that is not susceptible to the antimicrobial was added to the well. Each control set was also dispensed at least in duplicate per 384 well cartridge. Additional test controls may be included as deemed necessary by one of skill in the art. Equal amount of a patient sample was dispensed to each of the wells in the cartridge, except in the wells designated for no-sample control, if included. The patient cartridge was ready for determination of susceptibility of microbes from the patient sample to the twelve antimicrobials at the range of concentrations applied, simultaneously. Multiple such plates can be set up in parallel for testing samples from multiple patients, each patient sample per plate. An AST assay was performed on the prepared patient cartridges.
(§3) Shown in Table 5 and Table 6, MIC results for antimicrobial panels 1 and 2 respectively using a master cartridge format and a 384 well patient cartridge (column 3) agrees reliably with that run by standard 96 well AST assay plate (right hand column).

[2] = tested on: patient sample microbes; test: Standard 96-well AST assay plate, antimicrobial panel 1; format: cell-based
Excerpt: as §3

[3] = MIC, antimicrobial panel 1; cited from earlier work
[4] = tested on: patient sample microbes; test: AST on 384-well patient cartridge panel made from Master Plate, antimicrobial panel 2; format: cell-based; set-up: unit not given here; details: master cartridge format
Excerpt: as §1, §2, §3

[5] = tested on: patient sample microbes; test: Standard 96-well AST assay plate, antimicrobial panel 2; format: cell-based; set-up: unit not given here
Excerpt: as §3

[6] = MIC, antimicrobial panel 2; cited from earlier work
[7] = tested on: clinical isolate of S aureus; test: Broth microdilution reference method; format: cell-based; details: read-out: MICs obtained from the broth microdilution reference method
Procedure: The antibiotics shown are vancomycin, daptomycin, ceftaroline and levofloxacin, of which the MICs obtained from the broth microdilution reference method for this strain were 0.5, 0.25, 0.12, and 0.25 μg/ml, respectively. A clinical isolate of S aureus was used. Data represents the TRF signal in RFUs. Graphs in the top row contain data from 384-well plates. Graphs in the bottom row contain data from 96-well plates.

Molecule | MICs obtained from panel made from Master Plate [1] | MICs obtained from 96-well Antibiotic Panel [2] | Quality Control Range [3] | MICs obtained from panel made from Master Plate [4] | MICs obtained from 96-well Antibiotic Panel [5] | Quality Control Range [6] | MIC ([7]; clinical isolate of S aureus) [µg/mL] | MIC [7] [µg/mL]
NCC[C@H](O)C(=O)N[C@@H]1C[C@H](N)[C@@H](O[C@H]2O[C@H](CN)[C@@H](O)[C@H](O)[C@H]2O)[C@H](O)[C@H]1O[C@H]1O[C@H](CO)[C@@H](O)[C@H](N)[C@H]1O [Amikacin] | 4 | 4 | 0.5-4 | – | – | – | – | –
CC1(C)S[C@@H]2[C@H](NC(=O)[C@H](N)c3ccccc3)C(=O)N2[C@H]1C(=O)O [Ampicillin] | 4 | 8 | 2-8 | 1 | 1 | 0.5-2 | – | –
CO/N=C(\C(=O)N[C@@H]1C(=O)N2C(C(=O)[O-])=C(C[N+]3(C)CCCC3)CS[C@H]12)c1csc(N)n1 [Cefepime] | ≤0.25 | ≤0.03 | 0.015-0.12 | – | – | – | – | –
CCO/N=C(\C(=O)N[C@@H]1C(=O)N2C(C(=O)[O-])=C(Sc3nc(-c4cc[n+](C)cc4)cs3)CS[C@H]12)c1nsc(N)n1 [Ceftaroline] | – | – | – | 0.5 | 0.25 | – | 0.12 (≈ 0.198 µM) | –
CC(C)(O/N=C(\C(=O)N[C@@H]1C(=O)N2C(C(=O)[O-])=C(C[n+]3ccccc3)CS[C@H]12)c1csc(N)n1)C(=O)O [Ceftazidime] | <1 | 0.25 | 0.06-0.5 | 4 | 8 | 4-16 | – | –
CO/N=C(\C(=O)N[C@@H]1C(=O)N2C(C(=O)O)=C(CSc3nc(=O)c(=O)[nH]n3C)CS[C@H]12)c1csc(N)n1 [Ceftriaxone] | ≤0.125 | ≤0.12 | 0.03-0.12 | 2 | 4 | 1-8 | – | –
C[C@H]1COc2c(N3CCN(C)CC3)c(F)cc3c(=O)c(C(=O)O)cn1c23 [Levofloxacin] | ≤0.25 | ≤0.06 | – | ≤0.25 | 0.25 | – | 0.25 (≈ 0.692 µM) | –
CC(=O)NC[C@H]1CN(c2ccc(N3CCOCC3)c(F)c2)C(=O)O1 [Linezolid] | – | – | – | 2 | 2 | 1-4 | – | –
Cc1onc(-c2ccccc2)c1C(=O)N[C@@H]1C(=O)N2[C@@H]1SC(C)(C)[C@@H]2C(=O)O [Oxacillin] | – | – | – | 0.5 | 0.5 | 0.12-0.5 | – | –
CO[C@H]1/C=C/O[C@@]2(C)Oc3c(C)c(O)c4c(O)c(c(/C=N/N5CCN(C)CC5)c(O)c4c3C2=O)NC(=O)/C(C)=C\C=C\[C@H](C)[C@H](O)[C@@H](C)[C@@H](O)[C@@H](C)[C@H](OC(C)=O)[C@@H]1C [Rifampin] | – | – | – | ≤0.25 | 0.004 | 0.004-0.015 | – | –
Cn1nnc(-c2ccc(-c3ccc(N4C[C@H](CO)OC4=O)cc3F)cn2)n1 [Tedizolid] | – | – | – | 0.25 | 0.5 | 0.25-1 | – | –
NC[C@H]1O[C@H](O[C@H]2[C@H](O)[C@@H](O[C@H]3O[C@H](CO)[C@@H](O)[C@H](N)[C@H]3O)[C@H](N)C[C@@H]2N)[C@H](N)C[C@@H]1O [Tobramycin] | 0.5 | 1 | 0.25-1 | – | – | – | – | –
CCCCCCCCCC(=O)N[C@@H](Cc1c[nH]c2ccccc12)C(=O)N[C@H](CC(N)=O)C(=O)N[C@@H](CC(=O)O)C(=O)N[C@@H]1C(=O)NCC(=O)N[C@@H](CCCN)C(=O)N[C@@H](CC(=O)O)C(=O)N[C@H](C)C(=O)N[C@@H](CC(=O)O)C(=O)NCC(=O)N[C@H](CO)C(=O)N[C@@H]([C@H](C)CC(=O)O)C(=O)N[C@@H](CC(=O)c2ccccc2N)C(=O)O[C@@H]1C [daptomycin] | – | – | – | – | – | – | 0.25 (≈ 0.154 µM) | –
CN[C@H](CC(C)C)C(=O)N[C@H]1C(=O)N[C@@H](CC(N)=O)C(=O)N[C@H]2C(=O)N[C@H]3C(=O)N[C@H](C(=O)N[C@H](C(=O)O)c4cc(O)cc(O)c4-c4cc3ccc4O)[C@H](O)c3ccc(c(Cl)c3)Oc3cc2cc(c3O[C@@H]2O[C@H](CO)[C@@H](O)[C@H](O)[C@H]2O[C@H]2C[C@](C)(N)[C@H](O)[C@H](C)O2)Oc2ccc(cc2Cl)[C@H]1O [vancomycin] | – | – | – | – | – | – | – | 0.5 (≈ 0.345 µM)
Ampicillin-Sulbactam | 8 µg/mL | 8 µg/mL | 2-8 | – | – | – | – | –
Piperacillin-tazobactam | ≤ 1 µg/mL | 4 µg/mL | 1-4 | – | – | – | – | –
